One experiment has as its system active GLP-1. The experiment can be described thus: Active GLP-1 during oral glucose tolerance test (OGTT) and at 24 h in lean male SPD rats. Type of experiment: in vivo, rat. As to the method:
(§1) To establish the acute effects of oral administration of Compound A and Compound B upon active GLP-1 and insulin concentrations, lean (about 300 g) male Sprague-Dawley (SPD) rats were divided into groups (n=6-8) and fed 74 and 84 mg/kg body weight of Compound A or Compound B respectively, either with or without concurrent administration of a dipeptidyl peptidase 4 (DPP-4) inhibitor 60 minutes prior to an oral glucose tolerance test (OGTT) as outlined below. Parallel groups receiving either corn oil alone (corn oil+vehicle, n=10) or corn oil and a DPP-4 inhibitor (“DPP-4 i”) (corn oil+ (DPP-4 i), n=10) were included as controls. The DPP-4 inhibitor was linagliptin.
(§2) A second oral dose of 74 and 84 mg/kg bodyweight of Compound A or Compound B respectively was administered at 240 minutes and ad lib feeding was initiated. A second dose of DPP-4 inhibitor was administered at 480 mins prior to lights out. Blood samples were collected at 24 h for measurement of active GLP-1 and insulin. All values are mean, figures depict mean values (SEM).

Experiment [1] deals with ob/ob mice. The experiment can be described thus: Chronic treatment in ob/ob mice: basal parameters after 4 weeks. Type of experiment: in vivo, mouse. Particulars: 4 weeks diet admix, 4 h fast, Compound A 135, fenofibrate 100, pioglitazone 30 mg/kg bw/d, mean ± SEM; for Blood HbA1c: control 8.4 ± 0.4; for HOMA-IR: control 65.7 ± 9.8; for Plasma insulin: control 73.2 ± 13.6; for Plasma ALT: control 271.4 ± 18.8; for Blood glucose: control 380.8 ± 26.3; for Plasma adiponectin: control 4.3 ± 0.4. Here is the method: (§3) Mice were fed a standard low-fat (7% w/w fat) diet. After 4-weeks, the mice were fasted for 4 hours and the effects of Compound A were assessed. Assessment of the effects of Compound A included basal levels of blood glucose, plasma insulin, HbA1c levels, and homeostatic model assessment of insulin resistance (HOMA-IR). HOMA-IR is an assessment of insulin resistance and is calculated by the following formula: fasting insulin (micro U/L)×fasting glucose […]/22.5.

Experiment [2] has as its system ob/ob mice. The experiment can be described thus: Oral glucose (2 g/kg) tolerance test after 5 weeks treatment in ob/ob mice. It counts as in vivo, mouse. The conditions noted are these: for Plasma glucose AUC (0-120 min) / Plasma glucose, 0 min / Plasma glucose, 15 min / Plasma glucose, 30 min / Plasma glucose, 45 min / Plasma glucose, 60 min / Plasma glucose, 120 min: OGTT 2 g/kg, mean. Here is the method:
as §3
After 5 weeks, an oral glucose (2 g/kg) tolerance test was performed after a 4 hour fast.

The test system of the next experiment is GLP-1. The conditions noted are these: direct colonic delivery, rodents; cited from earlier work.
Another experiment deals with plasma insulin. The experiment can be described thus: Plasma insulin at 24 h in lean male SPD rats. It counts as in vivo, rat. The conditions noted are these: Compound A 74 mg/kg or Compound B 84 mg/kg oral, non-significant. Here is the method:
as §1, §2

For experiment [3], the system named is ob/ob mice. In words: Glucose tolerance after 21-day treatment in high-fat diet fed ob/ob mice. It counts as in vivo, mouse. The conditions noted are these: 112 mg/kg once-daily via diet, 21 days. Here is the method:
This study was carried out to assess the effects of chronic treatment with Compound B or Compound A on glucose tolerance in a T2DM rodent model.
For assessing the effects of Compound A, ob/ob mice were fed a high-fat diet (comprising 2% cholesterol, 40% fat (containing 18% trans-fatty acids), 20% fructose) for 15 weeks starting at age 5 weeks. […] After 21 days the mice received a 2 g/kg oral glucose load. After the oral glucose load, plasma glucose was measured at multiple time points from 0-240 minutes.

For experiment [4], the system named is atherogenic lipids. Particulars: humans; cited from earlier work.
The subject of experiment [5] is atherogenic lipids. The conditions noted are these: APOE*3.CETP mice; cited from earlier work.
Setting [6] is: reference drugs: fenofibrate 100, pioglitazone 30 mg/kg bw/d diet admix 5 weeks.
[7] abbreviates: 15 mg/kg bw/d diet admix 5 weeks.
The mark [8] stands for this setting: 45 mg/kg bw/d diet admix 5 weeks.
The mark [9] stands for this setting: 135 mg/kg bw/d diet admix 5 weeks.

Where two headings read alike, the source gives them in different places.

Consider `CC#CCn1c(N2CCC[C@@H](N)C2)nc2c1c(=O)n(Cc1nc(C)c3ccccc3n1)c(=O)n2C` [DPP4 inhibitor, linagliptin, reference compound], for which the “Effect on active GLP-1 concentration at 24 h” value in the experiment on active GLP-1 (corn oil+DPP4 inhibitor alone) is given as “no significant effect”. In the experiment with active GLP-1 (corn oil+DPP4 inhibitor alone, OGTT), the “Effect on active GLP-1 (AUC 0-60 mins) versus corn oil alone” value is recorded as “no significant effect”.

On to `CCc1ccc(CCOc2ccc(CC3SC(=O)NC3=O)cc2)nc1` (centres unmarked) [Pioglitazone, pioglitazone, reference compound], for which, in the experiment with ob/ob mice [1], the “Blood HbA1c” value is on record as 3.8 ± 0.1 %, the HOMA-IR is reported as 2.1 ± 0.3, the Plasma insulin was 5.7 ± 0.8 ng/mL and the “Plasma ALT” value amounted to 257.3 ± 15.5 U/L. Further, the Blood glucose in the experiment with ob/ob mice [1] was found to be 147.5 ± 3.1 mg/dL. In the experiment on ob/ob mice [2] (setting [6]), the Plasma glucose AUC (0-120 min) worked out at 879 mM·min; the “Plasma glucose, 0 min” value is on record as 7.8 mM; the “Plasma glucose, 15 min” value amounted to 24.2 mM; the “Plasma glucose, 30 min” value was 18.5 mM. Besides, in the experiment with ob/ob mice [2] (setting [6]), the “Plasma glucose, 45 min” value came out at 17.3 mM; the “Plasma glucose, 60 min” value was 15.2 mM; the “Plasma glucose, 120 min” value is 10.9 mM.

Turning to `CC(C)OC(=O)C(C)(C)Oc1ccc(C(=O)c2ccc(Cl)cc2)cc1` [Fenofibrate, fenofibrate, reference compound], in the experiment with ob/ob mice [1], the Plasma adiponectin is 5.0 ± 0.4 µg/mL, the “Blood HbA1c” value turned out to be 4.8 ± 0.2 %, the HOMA-IR was 20.3 ± 5.9 and the Plasma insulin was 35.5 ± 9.0 ng/mL. Further, in the experiment on ob/ob mice [1], the “Plasma ALT” value is reported as 224.0 ± 27.4 U/L and the Blood glucose amounted to 220.3 ± 8.1 mg/dL. In the experiment with ob/ob mice [2] (setting [6]), the Plasma glucose AUC (0-120 min) came to 1420 mM·min; the “Plasma glucose, 0 min” value is on record as 15.4 mM; the “Plasma glucose, 15 min” value came out at 35.9 mM; the “Plasma glucose, 30 min” value is 35.9 mM. For the same compound, in the experiment on ob/ob mice [2] (setting [6]), the “Plasma glucose, 45 min” value was found to be 30.6 mM and the “Plasma glucose, 60 min” value is recorded as 28.2 mM.

On to `CC/C=C\C/C=C\C/C=C\C/C=C\C/C=C\C/C=C\CCC(=O)O` [DHA], for which the GLP-1 secretion entry in the experiment with GLP-1 is “able to induce GLP-1 secretion”.

As to `CC/C=C\C/C=C\C/C=C\C/C=C\C/C=C\CCCCOC(CC)C(=O)O` (centres unmarked) [Compound A, 2-(((5Z,8Z,11Z,14Z,17Z)-icosa-5,8,11,14,17-pentaen-1-yl)oxy)butanoic acid], the “Effect on active GLP-1 concentration at 24 h versus corn oil+vehicle” value with active GLP-1 (in combination with DPP4 inhibitor, Compound A 74 mg/kg or Compound B 84 mg/kg oral, two doses) was “significantly (p<0.05) increased”. Also, the “Increase in plasma insulin concentration at 24 h versus corn oil+vehicle and corn oil+DPP4 inhibitor” value with plasma insulin (compound alone) is given as 25%. In addition, the “Increase in plasma insulin concentration at 24 h versus corn oil+vehicle and corn oil+DPP4 inhibitor” value in the experiment with plasma insulin (in combination with DPP4 inhibitor) was found to be 25%. The “Glucose tolerance from 15 minutes through 90 minutes post-glucose load compared to vehicle” value in the experiment on ob/ob mice [3] is given as “significantly improved glucose tolerance”. The AUC glucose entry with ob/ob mice [3] (p<0.01) was “significantly reduced AUC glucose”. In the experiment with ob/ob mice [1], the Plasma adiponectin worked out at 3.8 ± 0.4 µg/mL, the “Blood HbA1c” value turned out to be 4.5 ± 0.1 %, the HOMA-IR was 8.6 ± 3.6 and the Plasma insulin turned out to be 17.6 ± 6.8 ng/mL. In the experiment on ob/ob mice [1], the “Plasma ALT” value is 180.6 ± 14.6 U/L and the Blood glucose is given as 191.5 ± 6.1 mg/dL. In addition, in the experiment on ob/ob mice [2] (setting [7]), the Plasma glucose AUC (0-120 min) stood at 1760 mM·min; the “Plasma glucose, 0 min” value was 11.4 mM; the “Plasma glucose, 15 min” value was determined as 37.5 mM; the “Plasma glucose, 30 min” value is reported as 34.4 mM. Besides, in the experiment on ob/ob mice [2] (setting [7]), the “Plasma glucose, 45 min” value is 28.0 mM; the “Plasma glucose, 60 min” value worked out at 25.5 mM; the “Plasma glucose, 120 min” value was 19.6 mM. Also, in the experiment on ob/ob mice [2] (setting [8]), the Plasma glucose AUC (0-120 min) came out at 1110 mM·min; the “Plasma glucose, 0 min” value turned out to be 13.3 mM; the “Plasma glucose, 15 min” value amounted to 36.5 mM; the “Plasma glucose, 30 min” value amounted to 30.1 mM. In the experiment on ob/ob mice [2] (setting [8]), the “Plasma glucose, 45 min” value was 24.5 mM; the “Plasma glucose, 60 min” value was 21.0 mM; the “Plasma glucose, 120 min” value is recorded as 15.3 mM. In addition, in the experiment on ob/ob mice [2] (setting [9]), the Plasma glucose AUC (0-120 min) worked out at 816 mM·min; the “Plasma glucose, 0 min” value was determined as 9.2 mM; the “Plasma glucose, 15 min” value is listed as 27.7 mM; the “Plasma glucose, 30 min” value is on record as 22.1 mM. Further, in the experiment on ob/ob mice [2] (setting [9]), the “Plasma glucose, 45 min” value is 14.6 mM; the “Plasma glucose, 60 min” value is 13.4 mM; the “Plasma glucose, 120 min” value was 12.8 mM. Moreover, the “Lowering of glucose levels in oral glucose tolerance test” value in the experiment on ob/ob mice [2] (15, 45, 135 mg/kg bw/d diet admix 5 weeks) is listed as “dose-dependent response in lowering glucose levels”. Further, the “Effect on atherogenic lipids” value in the experiment on atherogenic lipids [4] is “significantly reduce atherogenic lipids”. In addition, the “Effect on atherogenic lipids” value with atherogenic lipids [5] was “significantly reduce atherogenic lipids”.

These data come from patent US20260000632A1, “STRUCTURALLY MODIFIED FATTY ACIDS FOR IMPROVING GLYCEMIC CONTROL AND TREATING INFLAMMATORY BOWEL DISEASE” (Northsea Therapeutics B.V., priority 2018, published 2026).
